Holding throughout (test): NCI anticancer screen, dose series, 48 h
Experiment [1] has as its system MDA-MB-231 breast.
In experiment [2] the test system is DU-145 prostate.
Experiment [3] has as its system NCI-H522 lung.
Experiment [4] has as its system HT29 colon.
Experiment [5] has as its system CAKI-1 renal.
The test system of experiment [6] is SK-MEL-2 melanoma.
Experiment [7] has as its system IGROV1 ovarian.
Experiment [8] concerns SN12C renal.
Experiment [9] concerns HCT-15 colon.
Experiment [10] deals with SF-539 CNS.
The subject of experiment [11] is HOP-62 NSCLC.
For experiment [12], the system named is HCC-2998 colon.

Results on eleven compounds are retold here after PubChem BioAssay (NCI).

Several values for one entry are separate records, joined by “and”; a condition that tells them apart may be missing. Equal values may be shown once.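 Step 1: Grow cells in 96-well plates. Step 2: Expose to compound for 48 hours at 5 concentrations. Step 3: Interpolate endpoints linearly; if unreached, use highest concentration. GI50 is the concentration that inhibits growth by half. TGI: concentration producing complete growth inhibition.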

For `COc1ccc(NC(C)=O)cc1N1C(=O)/C(=C\c2ccccc2)SC1c1cc(OC)c(OC)c(OC)c1` (centres undefined), the TGI in [1] is > 100 µM; in experiment [2], 80.6 µM; in [3], 35.4 µM; in [4] it was > 100 µM; in experiment [5], > 100 µM; in [6], > 100 µM. Besides, the TGI in experiment [7] was > 100 µM; in experiment [8], > 100 µM; in [9], 58.8 µM; in [10] it was 45.5 µM; in experiment [11], > 100 µM; in [12] it was 47.4 µM.

As to `CCN(CC)CC[n+]1ccc2c(C)c3[nH]c4ccc(O)cc4c3c(C)c2c1`, the TGI in [1] is 36.6 µM; in experiment [2] it was 14.2 µM; in experiment [3], 10.7 µM and 8.66 µM; in experiment [4], 41.1 µM and > 67.5 µM; in experiment [5] it was 49.6 µM and 16.3 µM; in experiment [6] it was 32 µM and 54.2 µM. For the same compound, the TGI was 38.6 µM and 73 µM in [7]; 6.42 µM and 3.25 µM in experiment [8]; 143 µM in [9]; 19 µM and 31.8 µM in experiment [10]; 13.4 µM and 18.9 µM in [11]; 22.6 µM and 85.4 µM in experiment [12]. Besides, the GI50 was 1.56 µM in experiment [3]; 12.6 µM in [4]; 3.41 µM in [5]; 20.8 µM in [6]; 4.79 µM in [7]; 0.211 µM in [8]. In addition, the GI50 in [12] was 6.94 µM.

With `Cc1c(/C=N/NC(=S)Nc2ccc(Cl)cc2)c(=O)n(-c2ccccc2)n1C`, the TGI in experiment [1] was 1.99 µM; in [2], > 100 µM; in experiment [3] it was 22.4 µM; in experiment [4], > 100 µM; in experiment [5], > 48.3 µM; in [6] it was 69 µM. The TGI in [7] was 45.2 µM; in [8], > 100 µM; in [9], > 100 µM; in experiment [10] it was 28.2 µM; in experiment [11], 27.5 µM; in [12], > 100 µM.

As for `CC(=O)Nc1cccc(N2C(=O)/C(=C\c3cccc(Oc4ccccc4)c3)S(=O)(=O)C2c2ccccc2)c1` (centres undefined), the TGI in experiment [1], in experiment [2], in experiment [3], in experiment [4], in [5] and in experiment [6] was > 100 µM throughout. For the same compound, the TGI in [7], in experiment [8], in [9], in experiment [10], in experiment [11] and in experiment [12] was > 100 µM in each case.

For the compound `CCCCCCCCCCCCCCCCCCNc1ccn(C2OC(CO)C(OP(=O)(O)OCC(O)COP(=O)(O)OCC3OC(n4cc(F)c(NCCCCCCCCCCCCCCCCCC)nc4=O)CC3O)C2O)c(=O)n1` (centres undefined), the TGI in experiment [1], in [2], in experiment [3], in experiment [4], in [5] and in experiment [6] was > 50 µM each time. The TGI in [7], in experiment [8], in experiment [9], in [10], in experiment [11] and in experiment [12] was > 50 µM throughout.

As to `CC(C)(C)OC(=O)N1C(OP(=O)(Oc2ccccc2)Oc2ccccc2)=CSc2ccccc21`, the TGI in experiment [1] is 77.6 µM; in [2] it was > 100 µM; in experiment [3] it was > 100 µM; in experiment [4] it was > 100 µM; in experiment [5], 92.3 µM; in experiment [6], 43.7 µM. Further, the TGI in [7], in experiment [8], in [9], in experiment [10], in experiment [11] and in experiment [12] was > 100 µM each time.

With `COc1cc(/C=N/c2nc3cc4sc(/N=C/c5cc(OC)c(OC)c(OC)c5)nc4cc3s2)cc(OC)c1OC`, the TGI in [1], in [2], in experiment [3], in experiment [4], in [5] and in experiment [6] was > 100 µM in each case. For the same compound, the TGI was > 100 µM in [7]; > 100 µM in experiment [8]; > 100 µM in [9]; 40.8 µM in [10]; > 100 µM in experiment [11]; > 100 µM in experiment [12].

Regarding `O=C(Oc1c(Cl)cc(C2(c3cc(Cl)c(OC(=O)c4ccccc4)c(Cl)c3)CCCCC2)cc1Cl)c1ccccc1`, the TGI in experiment [1] amounted to 27.3 µM; in experiment [2] it was 36.7 µM; in [3], 29.3 µM; in experiment [4], 30 µM; in [5] it was 18.5 µM; in experiment [6] it was 23.9 µM. Also, the TGI came out at 23.4 µM in [7]; 28.2 µM in [8]; 24.6 µM in experiment [9]; 29.2 µM in experiment [10]; 33.9 µM in experiment [11]; 22.9 µM in experiment [12].

Consider `C=C1C(=O)O[C@@H]2/C=C(\C)CC/C=C(\C)CC[C@@]12O`, for which the TGI came to 22.8 µM in [1]; 4.93 µM in experiment [2]; 1.38 µM in experiment [3]; 10.9 µM in experiment [4]; 2.79 µM in experiment [5]; 25.7 µM in experiment [6]. In addition, the TGI in [7] came out at 7.63 µM; in [8] it was 7.91 µM; in experiment [9] it was 9.27 µM; in experiment [10] it was 3.39 µM; in experiment [11] it was 15.6 µM; in [12], 12.7 µM.

As to `CCCCN1C(=O)c2c(Br)sc(Br)c2C1=O`, the TGI in experiment [1] was > 100 µM; in [2], > 100 µM; in experiment [3] it was > 100 µM; in experiment [4], 47.1 µM; in [5], > 100 µM; in [6] it was > 100 µM. Also, the TGI is > 100 µM in experiment [7]; 95.8 µM in experiment [8]; > 100 µM in [9]; 69.1 µM in experiment [10]; > 100 µM in [11]; > 100 µM in [12].

For `CNC1Cc2c[nH]c3cccc(c23)C12C=C(C)C(=O)O2` (centres undefined), the TGI in [1], in [2], in experiment [3], in [4], in [5] and in experiment [6] was > 100 µM in each case. Further, the TGI in [7], in [8], in [9], in experiment [10], in experiment [11] and in [12] was > 100 µM each time.
